The values below come from patent US12115176B2, “Methods and compositions relating to ClbP inhibition” (PRESIDENT AND FELLOWS OF HARVARD COLLEGE, priority 2021, dated 2024).

The subject of assay [1] is Enterococcus faecalis. The assay is described as follows: Bacterial MIC assay (broth dilution). It counts as cell-based. The note with it: read-out: MICs by compound.
Assay [2] has as its system Lactobacillus rhamnosus. The assay is described as follows: Bacterial MIC assay (broth dilution). The note with it: Lacticaseibacillus rhamnosus, read-out: MICs by compound. The assay is classed as cell-based. A general note: Dilution methods test growth across graded concentrations, often in twofold steps.
Assay [3] concerns Klebsiella oxytoca. The assay is described as follows: Bacterial MIC assay (broth dilution). The assay is classed as cell-based. Particulars: read-out: MICs by compound.
For assay [4], the system named is Bifidobacterium longum. The assay is described as follows: Bacterial MIC assay (broth dilution). It counts as cell-based. The note with it: read-out: MICs by compound.
Assay [5] deals with Escherichia coli NC101. The assay is described as follows: Bacterial MIC assay (broth dilution). The note with it: read-out: MICs by compound. It counts as cell-based. The procedure:
(§1) MICs of compounds against different bacterial species were determined using a modified version of a broth microdilution protocol which has been previously reported.^1 Briefly, cultures of each species indicated were inoculated from frozen stocks in deoxygenated Wilkins-Chalgren Anaerobic Medium (WCAM) inside of an anerobic chamber with an 92.5% N2/5% CO2/2.5% H2 atmosphere. Cultures were grown for 24-48 hours in a 37° C. incubator at which point an OD600-measurement was taken for each culture and was accordingly diluted in fresh WCAM to an equivalent of OD600=0.01. Diluted cultures were then distributed into the wells of a clear, flat-bottom 384-well plate and the compound of interest was added to a final DMSO concentration of 2% (or DMSO only for positive controls). […] mineral oil (Millipore Sigma) was deposited on top of the cultures and plates were covered with a clear adhesive plate seal. Plates were incubated at 37° C. for 16 hours, at which point the OD600 of all wells was recorded on a SpectraMax M2 plate reader (Molecular Devices).

For assay [6], the system named is a variety of bacterial strains from common gut phyla, including E. coli. The assay is described as follows: Turbidity MIC assay, all strains together. It counts as cell-based. Particulars: Escherichia coli; all strains tested; upper limit tested 200 μM; read-out: MICs in liquid culture.
Excerpt: Compound 3 is an inhibitor of colibactin-associated genotoxicity. Since colibactin is produced in the context of the gut microbiota, it is essential to understand how 3 can affect other members of this community and whether it remains an effective inhibitor under these conditions. […] A turbidity assay was used to determine minimum inhibitory concentrations (MICs) in liquid culture of 1-4 against a variety of bacterial strains from common gut phyla, including E. coli (Table 3).
as §1

In assay [7] the target is E. coli BL21 overexpressing ClbP (Escherichia coli, UniProt Q0P7K6). The assay is described as follows: ClbP fluorescence activity assay (live cells). The assay is classed as cell-based. The procedure:
ClbP fluorescence activity assay (live cells). One 5 mL starter culture each E. coli BL21 pET-29b-ClbP and pET-29b-ClbP-S95A were inoculated from frozen stocks and grown overnight at 37° C. in LB medium supplemented with 50 μg/ml kanamycin (LB+kan). Overnight cultures were diluted 1:100 in fresh LB+kan and incubated at 37° C. to an OD600 of 0.3, at which point protein expression was induced by the addition of 500 μM isopropyl β-D-1-thiogalactopyranoside (IPTG) and cultures were moved to 15° C. for 4 hours. Cultures were then aliquoted in a black 384-well plate and the appropriate concentration of inhibitor was added as a DMSO stocks to a final concentration of 1% DMSO in a volume of 30 μL. Reactions were initiated by the addition of 10 μL of LB+kan+IPTG containing the fluorogenic substrate (final concentration=100 μM). Plastes were incubated at 25° C. with intermittent shaking while taking regular fluorescence measurements in a Bio-Tek Synergy HTX multimode plate reader with an excitation filter of 360/40 nm and an emission filter of 440/20 nm. “% activity” was determined based on the formula above using RFU measurements after 7 hours.

Assay [8] addresses purified ClbP (Escherichia coli, UniProt Q0P7K6). The assay is described as follows: ClbP fluorescence activity assay (in vitro). It counts as biochemical, Escherichia coli CFT073. Particulars: for speed of reaching maximum potency, in words: slow-binding inhibition assay, 100 nM. The source says:
Constructs and protein purification for in vitro assays. ClbP constructs described in this publication were derived from a previously described plasmid containing the Escherichia coli CFT073 ClbP sequence (GenBank ID: NP_754344.1) inserted between the NdeI and XhoI restriction sites of pET29b (Addgene plasmid #48244).^14 All in vitro experiments used a construct bearing a C-terminal 10×His tag. This longer polyhistidine-tag was obtained by extension of the previously described 6×His tag through site-directed mutagenesis. All site-directed mutations were introduced using the Quikchange mutagenesis protocol (Stratagene) and confirmed by Sanger DNA sequencing of the whole open reading frame. Plasmids were transformed into chemically competent C41(DE3) (Lucigen) cells and proteins were isolated as previously described.^34
ClbP fluorescence activity assay (in vitro). Assays were performed in a buffer containing 50 mM Tris, 200 mM NaCl, 0.02% w/v DDM at pH 8.0 with 25 nM purified ClbP and 25 μM fluorogenic substrate in a total volume of 20 μL.^34 Purified ClbP was defrosted on ice from stocks stored at −80° C. Stocks were diluted to 50 nM enzyme in assay buffer in the wells of a black, flat-bottom 384-well plate and the appropriate inhibitor in DMSO or DMSO was added to a final concentration of 1%. For experiments testing different inhibitor concentrations, reactions were allowed to sit for 1 hour at room temperature. For experiments testing different preincubation times, the inhibitor in DMSO was added to each reaction X minutes before initiating the reaction, where X is the time indicated on the x-axis for that sample. For experiments to test whether hydrolysis of the boronic ester was rate-limiting, the inhibitor was added to buffer with no enzyme present and allowed to sit at room temperature for the time indicated before adding the enzyme. In all cases, reactions were initiated by the addition of 10 μL, of buffer containing the 50 μM fluorogenic substrate to achieve a final concentration of 25 μM and pipetting once with a multichannel pipette to mix. Reaction progress was monitored in a plate reader (Bio-Tek Synergy HTX multimode plate reader) with an excitation filter of 360/40 nm and an emission filter of 440/20 nm. “% activity” was determined based on the measured relative fluorescence units (RFU) of each condition after 1 hour using the following formula: […]

The test system of assay [9] is ClbP. The assay is described as follows: LC-MS quantitation of N-myristoyl-D-Asn produced by pks+ E. coli. It counts as cell-based, E. coli BW25113 BACpks. Particulars: pks+ E. coli (BW pks), versus DMSO. The procedure: LC-MS quantitation of N-myristoyl-D-Asn produced by pks^+ E. coli. One 5 mL starter culture each of E. coli BW25113 BACpks and E. coli BW25113 BACpksΔclbP was inoculated from frozen stocks and grown overnight at 37° C. in LB medium supplemented with 35 μg/ml chloramphenicol (LB+cam). Overnights were diluted 1:100 in fresh LB+cam+1% DMSO with the appropriate concentration of inhibitor and grown for 20 hours at 37° C. in a deep well plate in a shaking incubator. A 500 μL aliquot was taken from each sample, flash frozen in liquid nitrogen and lyophilized to dryness. Lyophilized pellets were extracted with 500 μL LC-MS grade methanol which contained 100 nM d27-N-myristoyl-D-asparagine as an internal standard, prepared as previously described, and vortexed for 30 seconds. After centrifugation at 16,500×g for 10 minutes in a tabletop microcentrifuge, supernatants were transferred to fresh 1.5 mL tubes and stored at −20° C. overnight. Samples were centrifuged again, and the supernatants analyzed by LC-MS/MS on a Waters Xevo TQ-S UPLC-triple quadrupole mass spectrometer using an Agilent Poroshell 120 EC-C18 column (2.7 μm, 4.6 mm×50 mm). […]

In assay [10] the test system is FANCD2 in HeLa cell extracts. The assay is described as follows: Western blot for FANCD2. The note with it: 0.5 μg/mL mitomycin C or 7.5 μg/mL cisplatin, 4 hours, no bacteria. It counts as cell-based, human. Here is the method:
Western Blot for FANCD2. Infections were carried out as described above. For conditions which involved other small molecules, no bacteria were introduced during the infection and cells were treated with either 0.5 μg/mL mitomycin C (MMC) or 7.5 μg/mL cisplatin under the same conditions for 4 hours. 20 hours after infection, cells were lysed directly in the culture wells (Lysis buffer: 50 mM Tris, (pH 8.0), 150 mM NaCl, 1% Triton X-100, 0.5% Sodium deoxycholate, 0.05% sodium dodecylsulfate, 1 mM MgSO4, SIGMAFAST Protease inhibitor mix, 100 U/mL benzonase (Millipore-Sigma). Lysates were then spun down at 16,000×g to remove particulates and the supernatant was mixed 1:1 with 2X Laemmli sample buffer (Bio-Rad) containing 50 mg/mL dithiothreitol (DTT). Samples were then heated at 70° C. for 10 minutes and run on an SDS-PAGE gel (3-8% Tris-Acetate Novex gel, Invitrogen) at 150 V for 1.5 hours at 4° C. Bands were then transferred to PVDF membranes (100 V, 1 hour at 4° C.) and blocked with 10% skim milk powder in TBST buffer at 4° C. overnight. Blots were probed sequentially with either mouse anti-actin (1.5 μg/mL) or mouse anti-FANCD2 (0.1 μg/mL) primary antibodies (Thermo Fisher Scientific, Catalog #MA511869 and MA123347), followed by a peroxidase-conjugated goat anti-mouse secondary antibody (Jackson ImmunoResearch product 115-035-003, 0.08 μg/mL). Each probing step was conducted for 90 minutes at room temperature n 2.5% skim milk powder in TBST. Before imaging, blots were washed 3×15 minutes each in TBST […]. Blots were imaged using the SuperSignal™ West Pico PLUS Chemiluminescent Substrate (Thermo Fisher Scientific) kit following the manufacturer's instructions and imaged using an Azure Biosystems c300 imager.
On the technique in general: Immunoblotting shows a protein as a band on a membrane.

The mark [11] stands for this setting: anaerobic, OD600 after 15 hours.

pIC50: −log10 of the molar value. In brackets after ≈: the same amount, converted by molar mass. Where two headings read alike, the source gives them in different places.

`O=C(N[C@H](CO)[C@H](O)c1ccc([N+](=O)[O-])cc1)C(Cl)Cl` [CAM, Chloramphenicol, reference compound]: the MIC amounted to 50 µM (≈ 16.2 µg/mL) in assay [1] (setting [11]); 25 µM (≈ 8.08 µg/mL) in assay [2] (Lactobacillus rhamnosus, anaerobic, OD600 after 15 hours); 6.25 µM (≈ 2.02 µg/mL) in [3] (setting [11]); 12.5 µM (≈ 4.04 µg/mL) in assay [4] (setting [11]); 25 µM (≈ 8.08 µg/mL) in assay [5] (Escherichia coli NC101, anaerobic, OD600 after 15 hours).
For orientation: pIC50 means −log10 of the IC50, conventionally taken in molar units. As for `CCCCCC(=O)N[C@H](CC(N)=O)B1OC(C)(C)C(C)(C)O1` [Compound 1], the MIC was greater than 200 µM in [6]; greater than 200 µM in [1] (15 h); greater than 200 µM in assay [2] (15 h); greater than 200 µM in assay [3] (15 h); greater than 200 µM in [4] (15 h); greater than 200 µM in assay [5] (Escherichia coli, NC101, 15 h). Also, the pIC50 in assay [7] was 8.25; in [8], 7.40.
Regarding `CC1(C)OB([C@@H](CC(N)=O)NC(=O)c2ccc3ccccc3c2)OC1(C)C` [Compound 2], the MIC is greater than 200 µM in assay [6]; greater than 200 µM in [1] (15 h); greater than 200 µM in [2] (15 h); greater than 200 µM in [3] (15 h); greater than 200 µM in [4] (15 h); greater than 200 µM in assay [5] (Escherichia coli, NC101, 15 h). Also, the negative logarithm of the IC50 (pIC50) in [7] was 8.14; in assay [8] it was 7.47. Further, the “speed of reaching maximum potency, in words” value in assay [8] is reported as “achieved their maximum potency faster than compound 4”.
Turning to `CC1(C)OB([C@@H](CC(N)=O)NC(=O)c2ccccc2)OC1(C)C` [Compound 4], the MIC was greater than 200 µM in [6]; greater than 200 µM in assay [1] (15 h); greater than 200 µM in assay [2] (15 h); greater than 200 µM in [3] (15 h); greater than 200 µM in [4] (15 h); greater than 200 µM in [5] (Escherichia coli, NC101, 15 h). The values for the pIC50 in assay [7] and in assay [8] were 7.57 and 7.16, respectively. In addition, in assay [8], the “speed of reaching maximum potency, in words” value was “showed a significant lag”. For the same molecule, the “quantity of N-myristoyl-D-Asn prodrug released” value in [9] is listed as “slightly lower potency than the others”.
In the case of `N.N.[Cl][Pt][Cl]` [cisplatin, reference compound], the “abundance of FANCD2-Ub in HeLa cells” value in assay [10] was “increase in abundance of FANCD2-Ub”.
Turning to `CO[C@@]12[C@H](COC(N)=O)C3=C(C(=O)C(C)=C(N)C3=O)N1C[C@@H]1N[C@@H]12` [mitomycin C, reference compound], the “abundance of FANCD2-Ub in HeLa cells” value in assay [10] is given as “increase in abundance of FANCD2-Ub”.
